Earlier results in US8912356B2, “DCC mediated coupling for halofenate manufacture” (Metabolex, Inc., priority 2013, dated 2014).

Key:
[1] = administration of racemic mixture
cytochrome P450 2C9 = cytochrome P450 2C9 (Homo sapiens, UniProt P11712); settings: relative to (+)-enantiomer of halofenic acid
Chain of cytochrome P450 2C9 (P11712 whole entry): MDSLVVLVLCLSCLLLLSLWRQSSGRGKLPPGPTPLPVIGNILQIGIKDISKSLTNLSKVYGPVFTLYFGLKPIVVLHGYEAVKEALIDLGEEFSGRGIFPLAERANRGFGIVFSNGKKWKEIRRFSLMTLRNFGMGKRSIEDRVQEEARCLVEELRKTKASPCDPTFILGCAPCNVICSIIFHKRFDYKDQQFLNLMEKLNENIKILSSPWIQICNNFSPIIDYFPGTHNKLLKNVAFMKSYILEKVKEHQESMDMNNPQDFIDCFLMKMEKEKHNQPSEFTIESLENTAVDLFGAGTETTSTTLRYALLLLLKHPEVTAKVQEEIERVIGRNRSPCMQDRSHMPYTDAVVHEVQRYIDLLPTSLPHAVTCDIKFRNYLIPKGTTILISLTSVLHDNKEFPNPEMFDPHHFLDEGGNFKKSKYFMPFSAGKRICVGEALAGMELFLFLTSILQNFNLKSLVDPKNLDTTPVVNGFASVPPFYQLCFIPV

| ability to inhibit cytochrome P450 2C9 compared to the (+)-enantiomer (cytochrome P450 2C9) | SMILES | plasma glucose [1] | serum uric acid [1] | triglycerides [1] | potential adverse drug-drug interactions (racemic halofenate, with Coumadin) | adverse effects (racemic mixture) |
| --- | --- | --- | --- | --- | --- | --- |
|  | CC(=O)NCCOC(=O)C(Oc1cccc(C(F)(F)F)c1)c1ccc(Cl)cc1 (racemic) [halofenate, 2-acetamidoethyl (4-chlorophenyl) (3-trifluoromethylphenoxy)acetate] | lowering | lowering | lowering | difficulties controlling anticoagulation with Coumadin™ | nausea, gastrointestinal ulcers, and gastrointestinal bleeding |
| about twenty-fold less active | O=C(O)[C@H](Oc1cccc(C(F)(F)F)c1)c1ccc(Cl)cc1 [(−)-enantiomer of halofenic acid, (−)-4-chloro-α-(3-trifluoromethylphenoxy)phenylacetic acid] |  |  |  |  |  |
